We go through 15 molecules from ChEMBL document CHEMBL4138236, “Trisubstituted barbiturates and thiobarbiturates: Synthesis and biological evaluation as xanthine oxidase inhibitors, antioxidants, antibacterial and anti-proliferative agents” (Eur J Med Chem, 2018).

≈ marks a conversion by molar mass, not a printed value.

A word on the IC50: it is the concentration at which inhibition is half-maximal. What is called MIC is the smallest concentration in the dilution series that meets the test's criterion for growth inhibition. Lower therefore signals inhibition by little substance.

The nature of data set [1]: Antioxidant activity assessed as DPPH radical scavenging activity at 30 uM after 20 mins by spectrophotometric method relative to control. In kind it is functional. A general note: Loss of DPPH colour is used to gauge radical scavenging.
A short description of data set [2]: Antioxidant activity assessed as DPPH radical scavenging activity at 30 uM after 60 mins by spectrophotometric method relative to control. The class given is functional.
Data set [3] can be described thus: Antioxidant activity assessed as DPPH radical scavenging activity after 20 mins by spectrophotometric method. In kind it is functional.
Data set [4] is described as follows: Antioxidant activity assessed as DPPH radical scavenging activity after 60 mins by spectrophotometric method. The class given is functional.
Data set [5] relates to MCF7. In words: Antiproliferative activity against human MCF7 cells at 30 uM after 72 hrs by MTT assay relative to control. The class given is functional. (Formazan colour is commonly taken as a measure of viable cells.)
Data set [6] relates to NHDF. The experiment in a line: Antiproliferative activity against NHDF at 30 uM after 72 hrs by MTT assay relative to control. The class given is cell-based. Conditions: human.
Data set [7] relates to Bacillus cereus. The experiment in a line: Antibacterial activity against Bacillus cereus ATCC 1178 after 24 hrs by broth microdilution method. In kind it is functional. The following applies: ATCC 1178, 24 h. For orientation: Broth dilution looks for growth in wells or tubes with falling amounts of substance.
In data set [8] the test system is Staphylococcus aureus. The experiment in a line: Antibacterial activity against Staphylococcus aureus ATCC 25923 after 24 hrs by broth microdilution method. Conditions: ATCC 25923, 24 h. In kind it is functional.
Data set [9] concerns Escherichia coli. In words: Antibacterial activity against Escherichia coli ATCC 25922 after 24 hrs by broth microdilution method. In kind it is functional. Conditions: ATCC 25922, 24 h.
For data set [10], the system named is Klebsiella pneumoniae. In words: Antibacterial activity against Klebsiella pneumoniae ATCC 13883 after 24 hrs by broth microdilution method. In kind it is functional. Conditions: ATCC 13883, 24 h.
Data set [11] has as its system Pseudomonas aeruginosa. In words: Antibacterial activity against Pseudomonas aeruginosa ATCC 27853 after 24 hrs by broth microdilution method. The class given is functional. Conditions: ATCC 27853, 24 h.
The subject of data set [12] is Salmonella typhimurium. In words: Antibacterial activity against Salmonella typhimurium ATCC 13311 after 24 hrs by broth microdilution method. The class given is functional, Salmonella enterica subsp. enterica serovar Typhimurium. Conditions: Salmonella enterica, ATCC 13311, 24 h.
In data set [13] the test system is Acinetobacter baumannii. The experiment in a line: Antibacterial activity against Acinetobacter baumannii LMG 1025 after 24 hrs by broth microdilution method. The class given is functional. The following applies: LMG 1025, 24 h.

Take `CC(NNc1ccc([N+](=O)[O-])cc1)=C1C(=O)N(C)C(=O)N(C)C1=O`: the Activity came out at 71.2% in [1], 76% in data set [2], 76.99% in data set [5] and 77.63% in data set [6]. Further, the results for the IC50 in data set [3] and in data set [4] were 23.9 µM and 23.8 µM, respectively. Moreover, the MIC in data set [7], in data set [8], in [9], in [10], in data set [11] and in data set [12] was above 200 µM each time. The MIC in data set [13] stood at 12.5 µM (≈ 4.17 µg/mL).
In the case of `CN1C(=O)C(=CNc2cc([N+](=O)[O-])ccc2Cl)C(=O)N(C)C1=O`, the Activity in data set [1] is -0.82%; in data set [2] it was 0%; in data set [5], 50.07%; in data set [6], 66.98%. In addition, the minimal inhibitory concentration (MIC) in data set [7], in data set [8], in data set [9], in data set [10], in [11] and in data set [12] was above 200 µM in each case. The same molecule had an MIC in [13] above 200 µM.
Take `CC(NNc1ccc([N+](=O)[O-])cc1[N+](=O)[O-])=C1C(=O)NC(=O)NC1=O`: the Activity in [1] came out at 17.6%; in data set [2], 18.1%; in [5], 50.01%; in [6] it was 79.47%. In addition, the MIC in data set [7], in data set [8], in data set [9], in data set [10], in [11] and in [12] was above 200 µM in each case. Also, in data set [13], the minimum inhibitory concentration (MIC) is above 200 µM.
`O=C1C(=Cc2ccccc2[N+](=O)[O-])C(=O)N(c2ccccc2)C(=S)N1c1ccccc1`: the Activity in [1] came to 9%; in data set [2] it was 11.3%; in data set [5], 67.93%; in [6] it was 77.56%. Besides, the MIC in data set [7], in data set [8], in data set [9], in data set [10], in [11] and in data set [12] was above 200 µM in each case. The same molecule displayed a minimal inhibitory concentration (MIC) in [13] above 200 µM.
In the case of `Cn1c([O-])c(C(C#N)c2ccc(Br)cc2)c(=O)n(C)c1=O.[Na+]` (stereo not given), the Activity in data set [1] was 0.45%; in data set [2], 1.2%; in data set [5], 79.47%; in data set [6], 80.09%. The MIC in data set [7], in data set [8], in data set [9], in data set [10], in data set [11] and in data set [12] was above 200 µM each time. The MIC in [13] is above 200 µM.
`Cc1c(C)c2c(c(C)c1O)CCC(C)(C(=O)O)O2` (stereo not given) [TROLOX]: the Activity worked out at 70% in [1] and 70.3% in data set [2]. The IC50 in data set [3] came to 33.8 µM; in data set [4], 35.9 µM.
Regarding `CC(NN)=C1C(=O)NC(=O)NC1=O`, the Activity is 11.6% in [1], 25.4% in data set [2], 98.27% in [5] and 82.68% in data set [6]. The MIC in [7], in [8], in data set [9], in [10], in data set [11] and in data set [12] was above 200 µM each time. Besides, the MIC in data set [13] was above 200 µM.
Consider `COc1ccc(C=C2C(=O)NC(=O)NC2=O)cc1`, for which the Activity was -0.97% in [1], 2.63% in data set [2], 78.75% in data set [5] and 71.59% in [6]. For the same molecule, the minimal inhibitory concentration (MIC) in [7], in [8], in data set [9], in data set [10], in data set [11] and in data set [12] was above 200 µM in each case. For the same molecule, the MIC in [13] was above 200 µM.
Regarding `NC(=S)NC=C1C(=O)NC(=S)NC1=O`, the Activity in data set [1] is 3.37%; in data set [2], 4.18%; in data set [5] it was 111.15%; in data set [6], 83.56%. In addition, the MIC in data set [7], in data set [8], in [9], in data set [10], in data set [11] and in data set [12] was above 200 µM each time. The molecule further displayed an MIC in [13] above 200 µM.
As to `CC(=O)C1C(=O)NC(=O)NC1=O`, the Activity is -6.91% in [1], -7.28% in [2], 80.64% in [5] and 124.84% in data set [6]. Besides, the MIC in data set [7], in [8], in [9], in data set [10], in [11] and in data set [12] was above 200 µM in each case. The molecule also displayed a minimum inhibitory concentration (MIC) in data set [13] above 200 µM.
Turning to `O=C(O)c1ccccc1NC=C1C(=O)N(c2ccccc2)C(=S)N(c2ccccc2)C1=O`, the Activity in data set [1] was -2.45%; in [2], -2.27%; in data set [5], 43.11%; in [6] it was 82.24%. Moreover, the MIC in [7], in [8], in [9], in data set [10], in data set [11] and in [12] was above 200 µM throughout. In addition, in data set [13], the MIC was above 200 µM.
In the case of `CC(=O)C1C(=O)N(C)C(=O)N(C)C1=O`, the Activity was -9.14% in [1], -9.91% in data set [2], 84.11% in data set [5] and 94.14% in [6]. The MIC in [7], in [8], in [9], in data set [10], in data set [11] and in [12] was above 200 µM throughout. This molecule also showed a minimum inhibitory concentration (MIC) in data set [13] above 200 µM.
Take `CN1C(=O)C(=CNC(N)=S)C(=O)N(C)C1=O`: the Activity in [1] stood at 20.3%; in data set [2] it was 31.9%; in data set [5], 59.18%; in [6], 84.63%. Further, the MIC in data set [7], in [8], in data set [9], in [10], in [11] and in data set [12] was above 200 µM in each case. The molecule also had a minimum inhibitory concentration (MIC) in [13] above 200 µM.
As for `O=C1NC(=O)C(=CNc2ccccc2C(=O)O)C(=O)N1`, the Activity amounted to 1.75% in data set [1], 1.98% in data set [2], 54.9% in data set [5] and 84.62% in data set [6]. The MIC in [7], in [8], in data set [9], in [10], in data set [11] and in data set [12] was above 200 µM each time. Besides, the MIC in [13] is above 200 µM.
As to `O=C1NC(=S)NC(=O)C1=CNc1ccccc1Cl`, the Activity in data set [1] was 1.12%; in data set [2], 0.92%; in data set [5], 47.17%; in data set [6], 65.67%. Besides, the MIC in data set [7], in data set [8], in data set [9], in [10], in data set [11] and in data set [12] was above 200 µM throughout. Further, the MIC in data set [13] is above 200 µM.
